This is an account of results in patent US11261190B2, “Dihydropyrimidine compounds and uses thereof in medicine” (SUNSHINE LAKE PHARMA CO., LTD., priority 2017, dated 2022).

The structures appear in SMILES notation.

For one data set, the system named is HBV. As to the kind of experiment: Anti HBV activity in vitro, viral DNA from HepG2.2.15 cells quantified by qPCR. In kind it is cell-based. Particulars: Hepatitis B virus, qPCR of viral DNA in supernatant, read-out: EC50 against HBV replication. As for the experimental part: Test 1: Test Method of EC50 of Anti HBV
HBV Cell Line and Culture Conditions
HepG2.2.15 (SELLS, PNAS, 1987 and SELLS, JV, 1988) chromosomes have an integrated complete HBV genome, and stably express viral RNA and viral protein. HepG2.2.15 cells can secrete mature HBV particles, HBsAg and HBeAg to medium. HepG2.2.15 cells were cultured in DMEM containing 10% fetal bovine serum, 100 U/mL penicillin, 100 U/mL streptomycin, 1% non essential amino acid, 1 mM sodium pyruvate and 300 µg/mL G418.
Viral particles DNA secreted from HepG2.2.15 cells can be quantified by qPCR, and the effect of the compound on viral replication can be detected.
Test of Anti HBV Activity In Vitro
8000 HepG 2.2.15 cells per well were seeded into a 96-well plate, the plate was cultured at 37° C. and 5% CO2 for 3 days till the cells grew to full wells. Old liquid medium can be removed and replaced with new medium (200 μL) on day 0.
Formulating the compound and treating the cells in the experiment of anti virus: the compound was dissolved in DMSO to a concentration of 30 mM, and then the compound solution was diluted with DMSO to a concentration of […], and then eight dilutions at 4 fold were performed, the highest concentration is 800 μM. The serial diluted compound was added to the above plate at 1 μL per well, the highest final concentration in the experiment is 4 μM (200 fold dilution). TDF (tenofovir dipiroxil fumarate, Selleck, Cat S1400) has a highest concentration of 4 μM as a positive control. 1 μL of DMSO was added in to the positive control well at a final concentration of 0.5%, TDF was added in to the positive control well at a final concentration of 1 μM.
Detection of Viral Genomic DNA by qPCR
Primer: HBV-For-202, […]; HBV-Rev-315, […]. Copies of virus can be calculated using a standard curve plotted by using plasmid containing HBV genome and using SYBR Premix Ex Taq II Takara DRR081S kit and 1 μL cell culture supernatant as a template. EC50 values of the compound on viral replication were calculated by a four parametric nonlinear regression model using Graphpad Prism 5 software to manage concentration—viral copy number.

A short description of data set [1]: Cytotoxicity in HepG2.2.15 cells (CellTiter Glo). In kind it is cell-based. Particulars: human, highest concentration 150 μM. On the procedure: Test 2: Cytotoxicity and Selectivity Index
Methods of Testing Cytotoxicity and Selectivity Index
The serial diluted compound was added to a 384 wells plate at 50 μL HepG2.2.15 cell per well (3000 cells per well), the highest final concentration in the experiment is 150 μM (200 fold dilution). The plate was cultured at 37° C. in an incubator with C02 for 4 days, and cytotoxicity of the compound was detected using CellTiter Glo agent.
The cytotoxicity of the compound was calculated using the following formulate, cytotoxicity (%)=100−(detection value/mean of DMSO control wells values×100). CC50 values were calculated by a four parametric nonlinear regression model using Graphpad Prism 5 software to manage concentration−cytotoxicity (%). […]
For orientation: ATP-based viability assays read luminescence as a measure of living cells.

Regarding `COC(=O)C1=C(CN2CCN3C(=O)N(c4ccc(C(C)=O)cc4)C[C@@H]3C2)NC(c2nccs2)=N[C@H]1c1ccc(F)cc1Cl` [Example 31, (R)-methyl 6-(((S)-2-(4-acetylphenyl)-3-oxohexahydroimidazo[1,5-a]pyrazin-7(1H)-yl)methyl)-4-(2-chloro-4-fluorophenyl)-2-(thiazol-2-yl)-1,4-dihydropyrimidine-5-carboxy late], in the data set on HBV, the EC50 (in general, the concentration that produces a half-maximal response) is 0.004 µM. Further, in data set [1], the CC50 (commonly the concentration that lowers cell viability or growth by half) at 4 days is above 150 µM.
The matching figures for `COC(=O)C1=C(CN2CCN3C(=O)N(c4ccc(C(C)=O)cc4F)C[C@@H]3C2)NC(c2nccs2)=N[C@H]1c1ccc(F)cc1Cl` [Example 32, (R)-methyl 6-(((S)-2-(4-acetyl-2fluorophenyl)-3-oxohexahydroimidazo[1,5-a]pyrazin-7(1H)-yl)methyl)-4-(2-chloro-4-fluorophenyl)-2-(thiazol-2-yl)-1,4-dihydropyrimidine-5-carboxylate]: 0.006 µM and above 150 µM.
For `COC(=O)C1=C(CN2CCN3C(=O)N(c4ccc(C(C)(C)C(=O)O)cc4F)C[C@@H]3C2)NC(c2nccs2)=N[C@H]1c1ccc(F)cc1Cl` [Example 33, 2-(4-((S)-7-(((R)-6-(2-chloro-4-fluorophenyl)-5-(methoxycarbonyl)-2-(thiazol-2-yl)-3,6-dihydropyrimidin-4-yl)methyl)-3-oxohexahydroimidazo[1,5-a]pyrazin-2(3H)-yl)-3-fluorophenyl)-2-methylpropionic Acid] the same measures were 0.025 µM and above 150 µM.
Turning to `COC(=O)C1=C(CN2CCN3C(=O)N(c4ccc(CCC(=O)O)cc4F)C[C@@H]3C2)NC(c2nccs2)=N[C@H]1c1ccc(F)cc1Cl` [Example 34, 3-(4-((S)-7-(((R)-6-(2-chloro-4-fluorophenyl)-5-(methoxycarbonyl)-2-(thiazol-2-yl)-3,6-dihydropyrimidin-4-yl)methyl)-3-oxohexahydroimidazo[1,5-a]pyrazin-2(3H)-yl)-3-fluorophenyl)propionic Acid], the concentration for a half-maximal effect (EC50) in the data set with HBV was 0.016 µM. In data set [1], this compound registered a CC50 at 4 days above 150 µM.
Turning to `COC(=O)C1=C(CN2CCN3C(=O)N(c4cccc(CCC(=O)O)c4)C[C@@H]3C2)NC(c2nccs2)=N[C@H]1c1ccc(F)cc1Cl` [Example 37, 3-(3-((S)-7-(((R)-6-(2-chloro-4-fluorophenyl)-5-(methoxycarbonyl)-2-(thiazol-2-yl)-3,6-dihydropyrimidin-4-yl)methyl)-3-oxohexahydroimidazo[1,5-a]pyrazin-2(3H)-yl)phenyl)propionic Acid], the EC50 in the data set with HBV stood at 0.005 µM. The compound further yielded a CC50 at 4 days in data set [1] above 150 µM.
As to `COC(=O)C1=C(CN2CCN3C(=O)N(c4cccc(C(C)(C)C(=O)O)c4)C[C@@H]3C2)NC(c2nccs2)=N[C@H]1c1ccc(F)cc1Cl` [Example 38, 2-(3-((S)-7-(((R)-6-(2-chloro-4-fluorophenyl)-5-(methoxycarbonyl)-2-(thiazol-2-yl)-3,6-dihydropyrimidin-4-yl)methyl)-3-oxohexahydroimidazo[1,5-a]pyrazin-2(3H)-yl)phenyl)-2-methylpropionic Acid], the EC50 in the data set with HBV was 0.015 µM. This compound also had a half-maximal cytotoxic concentration (CC50) at 4 days in data set [1] above 150 µM.
In the case of `COC(=O)C1=C(CN2CCN3C(=O)N(c4cccc(CC(=O)O)c4)C[C@@H]3C2)NC(c2nccs2)=N[C@H]1c1ccc(F)cc1Cl` [Example 39, 2-(3-((S)-7-(((R)-6-(2-chloro-4-fluorophenyl)-5-(methoxycarbonyl)-2-(thiazol-2-yl)-3,6-dihydropyrimidin-4-yl)methyl)-3-oxohexahydroimidazo[1,5-a]pyrazin-2(3H)-yl)phenyl) acetic Acid], in the data set with HBV, the EC50 is 0.029 µM. Also, the CC50 at 4 days in data set [1] was above 150 µM.
As to `COC(=O)C1=C(CN2CCN3C(=O)N(c4ccc(OC(C)(C)C(=O)O)cc4)C[C@@H]3C2)NC(c2nccs2)=N[C@H]1c1ccc(F)cc1Cl` [Example 40, 2-(4-((S)-7-(((R)-6-(2-chloro-4-fluorophenyl)-5-(methoxycarbonyl)-2-(thiazol-2-yl)-3,6-dihydropyrimidin-4-yl)methyl)-3-oxohexahydroimidazo[1,5-a]pyrazin-2(3H)-yl)phenoxy)-2-methylpropionic Acid], the EC50 in the data set with HBV was found to be 0.071 µM. In data set [1], this compound yielded a CC50 at 4 days above 150 µM.
On to `COCC(C)(C)NC(=O)CCc1ccc(N2C[C@@H]3CN(CC4=C(C(=O)OC)[C@H](c5ccc(F)cc5Cl)N=C(c5nccs5)N4)CCN3C2=O)cc1` [Example 44, (R)-methyl 4-(2-chloro-4-fluorophenyl)-6-(((S)-2-(4-(3-((1-methoxy-2-methylpropan-2-yl)amino)-3-oxopropyl)phenyl)-3-oxohexahydroimidazo[1,5-a]pyrazin-7(1H)-yl)methyl)-2-(thiazol-2-yl)-1,4-dihydropyrimidine-5-carboxylate], for which the EC50 in the data set with HBV is 0.01 µM. Moreover, the CC50 at 4 days in data set [1] is above 150 µM.
In the case of `COC(=O)C1=C(CN2CCN3C(=O)N(c4ccc(CCC(=O)O)cc4)C[C@@H]3C2)NC(c2nccn2C)=NC1c1ccc(F)cc1Cl` (stereo partly drawn) [Example 45, 3-(4-((8aS)-7-((-6-(2-chloro-4-fluorophenyl)-5-(methoxycarbonyl)-2-(1-methyl-1H-imidazol-2-yl)-3,6-dihydropyrimidin-4-yl)methyl)-3-oxohexahydroimidazo[1,5-a]pyrazin-2(3H)-yl)phenyl)propionic Acid], the EC50 in the data set with HBV was found to be 0.008 µM. In data set [1], this compound had a CC50 at 4 days above 150 µM.
For `COC(=O)C1=C(CN2CCN3C(=O)N(c4ccc(C(NC(=O)OC(C)(C)C)C(=O)O)cc4)C[C@@H]3C2)NC(c2nccs2)=N[C@H]1c1ccc(F)cc1Cl` (stereo partly drawn) [Example 46, 2-((tert-butoxycarbonyl)amino)-2-(4-((S)-7-(((R)-6-(2-chloro-4-fluorophenyl)-5-(methoxycarbonyl)-2-(thiazol-2-yl)-3,6-dihydropyrimidin-4-yl)methyl)-3-oxohexahydroimidazo[1,5-a]pyrazin-2(3H)-yl)phenyl)acetic Acid] the same measures were 0.022 µM and above 150 µM.
The matching figures for `COC(=O)C1=C(CN2CCN3C(=O)N(c4ccc(/C=C/C(=O)O)cc4)C[C@@H]3C2)NC(c2nccs2)=N[C@H]1c1ccc(F)cc1Cl` [Example 47, (E)-3-(4-((S)-7-(((R)-6-(2-chloro-4-fluorophenyl)-5-(methoxycarbonyl)-2-(thiazol-2-yl)-3,6-dihydropyrimidin-4-yl)methyl)-3-oxohexahydroimidazo[1,5-a]pyrazin-2(3H)-yl)phenyl)acrylic Acid]: 0.003 µM and above 150 µM.
In the case of `COC(=O)C1=C(CN2CCN3C(=O)N(c4ccc(CCC(N)=O)cc4)C[C@@H]3C2)NC(c2nccs2)=N[C@H]1c1ccc(F)cc1Cl` [Example 48, (R)-methyl 6-(((S)-2-(4-(3-amino-3-oxopropyl)phenyl)-3-oxohexahydroimidazo[1,5-a]pyrazin-7(1H)-yl)methyl)-4-(2-chloro-4-fluorophenyl)-2-(thiazol-2-yl)-1,4-dihydropyrimidine-5-carboxylate], the EC50 with HBV stood at 0.01 µM. In data set [1], this compound registered a CC50 at 4 days above 150 µM.
For the compound `COC(=O)C1=C(CN2CCN3C(=O)N(c4ccc(CCCNS(C)(=O)=O)cc4)C[C@@H]3C2)NC(c2nccs2)=N[C@H]1c1ccc(F)cc1Cl` [Example 49, (R)-methyl 4-(2-chloro-4-fluorophenyl)-6-(((S)-2-(4-(3-(methylsulfonylamino)propyl)phenyl)-3-oxohexahydroimidazo[1,5-a]pyrazin-7(1H)-yl)methyl)-2-(thiazol-2-yl)-1,4-dihydropyrimidin-5-carboxylate], the EC50 with HBV turned out to be 0.012 µM. For the same compound, the CC50 at 4 days in data set [1] was above 150 µM.
